Laboratory results: US7060698B2, “Benzoxazepinone derivatives” (Hoffmann-La Roche Inc., priority 2003, dated 2006)

These compounds were tested against γ-secretase (Homo sapiens, UniProt P49768) (assay: in vitro assay of γ-secretase activity (HEK293 membrane fraction, recombinant APP substrate, Abeta ELISA)). Details: statement in the synthesis example on the separated diastereomers; assay not named.
Type: biochemical
Text: The activity of test compounds can be evaluated in assays which measure the proteolytic cleavage of suitable substrates by γ-secretase activity. These can be cellular assays where e.g., a substrate of the γ-secretase is fused in its cytoplasmic domain to a transcription factor. Cells are transfected with this fusion gene and a reporter gene, e.g., firefly luciferase, which expression is enhanced by the transcription factor. Cleavage of the fused substrate by γ-secretase will lead to expression of the reporter gene which can be monitored in appropriate assays. The γ-secretase activity can also be determined in cell-free in vitro assays where e.g., a cell lysate containing the γ-secretase complex is incubated with a suitable APP-derived substrate which is cleaved to the Abeta peptides. The amount of produced peptides can be determined with specific ELISA assays. Cell lines of neuronal origin secrete Abeta peptides which can be measured with the specific ELISA assay. Treatment with compounds which inhibit γ-secretase leads to a reduction of secreted Abeta thus providing a measure of inhibition. The in vitro assay of γ-secretase activity uses a HEK293 membrane fraction as a source of γ-secretase and a recombinant APP substrate. Latter consist of the C-terminal 100 amino acids of human APP fused to a 6× Histidin tail for purification which is expressed in E. coli in a regulatable expression vector, e.g. pEt15. This recombinant protein corresponds to the truncated APP fragment which results after […] of the extracellular domain and which constitutes the γ-secretase substrate. The assay principle is described in Li Y M et al, PNAS 97(11), 6138–6143 (2000). Hek293 cells are mechanically disrupted and the microsomal fraction is isolated by differential centrifugation. The membranes are solubilized in detergent (0.25% CHAPSO) and incubated with the APP substrate.

| Structure (SMILES) | inhibitory activity of the separated diastereomers |
| --- | --- |
| CCC1Oc2ccc(Cl)cc2C(C(=O)NC(C)(C)C)N(Cc2c(F)cccc2F)C1=O (stereo not drawn) [Example 12, 7-Chloro-4-(2,6-difluoro-benzyl)-2-ethyl-3-oxo-2,3,4,5-tetrahydro-benzo[f][1,4]oxazepine-5-carboxylic acid tert-butylamide] | both inhibitorially active |
| CCC1Oc2ccc(Cl)cc2C(C(=O)NC(C)(C)C)N(C2CCCCC2)C1=O (stereo not drawn) [Example 13, 7-Chloro-4-cyclohexyl-2-ethyl-3-oxo-2,3,4,5-tetrahydro-benzo[f][1,4]oxazepine-5-carboxylic acid tert-butylamide] | both inhibitorily active |
| CCC1Oc2ccc(Cl)cc2C(C(=O)NC2CCCCC2)N(C2CCCCC2)C1=O (stereo not drawn) [Example 6, 7-Chloro-4-cyclohexyl-2-ethyl-3-oxo-2,3,4,5-tetrahydro-benzo[f][1,4]oxazepine-5-carboxylic acid cyclohexylamide] | both inhibitorily active |
| CCC1Oc2ccc(Cl)cc2C(C(=O)NC(C)(C)C)N(C2CCCC2)C1=O (stereo not drawn) [Example 16, 7-Chloro-4-cyclopentyl-2-ethyl-3-oxo-2,3,4,5-tetrahydro-benzo[f][1,4]oxazepine-5-carboxylic acid tert-butylamide] | both inhibitorily active |

Now from value to compound:

| inhibitory activity of the separated diastereomers | Structure (SMILES) |
| --- | --- |
| both inhibitorily active | CCC1Oc2ccc(Cl)cc2C(C(=O)NC2CCCCC2)N(C2CCCC2)C1=O (stereo not drawn) [Example 9, 7-Chloro-4-cyclopentyl-2-ethyl-3-oxo-2,3,4,5-tetrahydro-benzo[f][1,4]oxazepine-5-carboxylic acid cyclohexylamide] |
| both inhibitorily active | CCC1Oc2ccc(Cl)cc2C(C(=O)NC2CCCCC2)N(C2CCOCC2)C1=O (stereo not drawn) [Example 10, 7-Chloro-2-ethyl-3-oxo-4-(tetrahydro-pyran-4-yl)-2,3,4,5-tetrahydro-benzo[f][1,4]oxazepine-5-carboxylic acid cyclohexylamide] |
| both inhibitorily active | CCC1Oc2ccc(Cl)cc2C(C(=O)NC(C)(C)C)N(Cc2ccccc2Cl)C1=O (stereo not drawn) [Example 14, 7-Chloro-4-(2-chloro-benzyl)-2-ethyl-3-oxo-2,3,4,5-tetrahydro-benzo[f][1,4]oxazepine-5-carboxylic acid tert-butylamide] |
| both inhibitorily active | CCC1Oc2ccc(Cl)cc2C(C(=O)NC2CCCCC2)N(Cc2ccccc2Cl)C1=O (stereo not drawn) [Example 7, 7-Chloro-4-(2-chloro-benzyl)-2-ethyl-3-oxo-2,3,4,5-tetrahydro-benzo[f][1,4]oxazepine-5-carboxylic acid cyclohexylamide] |
| both inhibitorially active | CCC1Oc2ccc(Cl)cc2C(C(=O)NC2CCCCC2)N(Cc2cccc(C(F)(F)F)c2)C1=O (stereo not drawn) [Example 11, 7-Chloro-2-ethyl-3-oxo-4-(3-trifluoromethyl-benzyl)-2,3,4,5-tetrahydro-benzo[f][1,4]oxazepine-5-carboxylic acid cyclohexylamide] |
